Test results taken from BindingDB's records for aid1799744 (Csar, 2012).
Several values for one entry are separate records, joined by “and”; a condition that tells them apart may be missing. Equal entries are not always repeated.

molecular target: Mitogen-activated protein kinase 1 (Homo sapiens, UniProt P28482); test: Assay 1
Sequence (P28482 whole entry): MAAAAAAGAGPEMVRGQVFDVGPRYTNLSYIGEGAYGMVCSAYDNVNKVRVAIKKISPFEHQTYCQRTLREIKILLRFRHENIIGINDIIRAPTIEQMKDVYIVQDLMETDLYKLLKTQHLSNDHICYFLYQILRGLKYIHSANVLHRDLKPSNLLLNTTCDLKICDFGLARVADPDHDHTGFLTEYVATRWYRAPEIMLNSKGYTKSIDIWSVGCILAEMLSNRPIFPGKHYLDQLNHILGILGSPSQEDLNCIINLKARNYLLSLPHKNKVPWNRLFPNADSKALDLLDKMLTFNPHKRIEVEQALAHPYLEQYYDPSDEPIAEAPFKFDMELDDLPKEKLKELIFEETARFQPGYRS

Structure (SMILES)	Ki
CCNc1ncc(C)c(-c2c[nH]c(C(=O)NCc3ccccc3F)c2)n1 [erk000473]	794 nM
CCNc1ncc(C)c(-c2c[nH]c(C(=O)NCc3cccc(F)c3)c2)n1 [erk000474]	83 nM
CCNc1ncc(C)c(-c2c[nH]c(C(=O)NCc3ccccc3OC)c2)n1 [erk000475]	468 nM
CCNc1ncc(C)c(-c2c[nH]c(C(=O)NCc3cccc(OC)c3)c2)n1 [erk000476]	52 nM
CCNc1ncc(C)c(-c2c[nH]c(C(=O)N[C@@H](CO)c3cc(F)cc(C(F)(F)F)c3)c2)n1 [erk000478]	120 nM
CCNc1ncc(C)c(-c2c[nH]c(C(=O)N[C@@H](CO)c3cccc(F)c3)c2)n1 [erk000479]	9 nM
CCNc1ncc(C)c(-c2c[nH]c(C(=O)NCc3ccccc3O)c2)n1 [erk000480]	1510 nM
CCNc1ncc(C)c(-c2c[nH]c(C(=O)NCc3cccc(O)c3)c2)n1 [erk000484]	68 nM
CCNc1ncc(C)c(-c2c[nH]c(C(=O)NCc3ccc(O)c(O)c3)c2)n1 [erk000485]	427 nM
CCNc1ncc(C)c(-c2c[nH]c(C(=O)N[C@@H](CO)c3ccccc3F)c2)n1 [erk000486]	229 nM
Cc1cnc(N[C@@H](CO)CC2CC2)nc1-c1c[nH]c(C(=O)N[C@H](CO)c2ccccc2)c1 [erk000487]	4 nM
Cc1cnc(N[C@H](CO)C(C)C)nc1-c1c[nH]c(C(=O)N[C@H](CO)c2ccccc2)c1 [erk000488]	14 nM
CCNc1ncc(C)c(-c2c[nH]c(C(=O)N[C@@H](C(C)=O)c3ccccc3)c2)n1 [erk000489]	1910 nM
CCNc1ncc(C)c(-c2c[nH]c(C(=O)N[C@H](CO)c3cccc(C(F)(F)F)c3)c2)n1 [erk000491]	13 nM
Cc1cnc(NC2CC2)nc1-c1c[nH]c(C(=O)N[C@H](CO)c2cccc(C(F)(F)F)c2)c1 [erk000492]	2 nM
CONc1ncc(C)c(-c2c[nH]c(C(=O)N[C@H](CO)c3ccccc3)c2)n1 [erk000493]	29 nM
Cc1cnc(NOC(C)C)nc1-c1c[nH]c(C(=O)N[C@H](CO)c2ccccc2)c1 [erk000494]	10 nM
CC(=O)Nc1ncc(C)c(-c2c[nH]c(C(=O)N[C@H](CO)c3ccccc3)c2)n1 [erk000496]	32 nM
Cc1cnc(NC[C@H]2CCCO2)nc1-c1c[nH]c(C(=O)N[C@H](CO)c2ccccc2)c1 [erk000497]	14 nM
CCOC(=O)NNc1ncc(C)c(-c2c[nH]c(C(=O)N[C@H](CO)c3ccccc3)c2)n1 [erk000498]	646 nM
CN(C)c1sc(C#N)c2c1-c1nc(Nc3cccc(O)c3)ncc1CC2 [erk000499]	40 nM
Cc1cnc(NOCC2CC2)nc1-c1c[nH]c(C(=O)N[C@H](CO)c2ccccc2)c1 [erk000500]	26 nM
Cc1cnc(-c2ccccc2)nc1-c1c[nH]c(C(=O)N[C@H](CO)c2ccccc2)c1 [erk000501]	20 nM
Cc1ncc(C)c(-c2c[nH]c(C(=O)N[C@H](CO)c3ccccc3)c2)n1 [erk000502]	257 nM
Cc1cnc(NC#N)nc1-c1c[nH]c(C(=O)N[C@H](CO)c2ccccc2)c1 [erk000503]	25 nM
Cc1cnc(NOCCO)nc1-c1c[nH]c(C(=O)N[C@H](CO)c2ccccc2)c1 [erk000504]	18 nM
Cc1cnc(NN(C)C)nc1-c1c[nH]c(C(=O)N[C@H](CO)c2ccccc2)c1 [erk000505]	7 nM

Structure (SMILES)	Ki
CC[C@@H](CO)Nc1ncc(C)c(-c2c[nH]c(C(=O)N[C@H](CO)c3cccc(Cl)c3)c2)n1 [erk000507]	2 nM
c1ccc2c(Nc3cc(C4CC4)n[nH]3)nc(Nc3ccc4nc[nH]c4c3)nc2c1 [erk000508]	78 nM
Cc1cnc(NC(CO)CO)nc1-c1c[nH]c(C(=O)N[C@H](CO)c2ccccc2)c1 [erk000509]	5 nM
Cc1cnc(N[C@@H]2C[C@@H]2C)nc1-c1c[nH]c(C(=O)N[C@H](CO)c2ccccc2)c1 [erk000510]	0.5 nM
Cc1cnc(NC(C)(CO)CO)nc1-c1c[nH]c(C(=O)N[C@H](CO)c2ccccc2)c1 [erk000512]	6 nM
Cc1cnc(NC2(CO)CCCC2)nc1-c1c[nH]c(C(=O)N[C@H](CO)c2ccccc2)c1 [erk000513]	51 nM
Cc1cnc(N[C@H](CO)CC(C)C)nc1-c1c[nH]c(C(=O)N[C@H](CO)c2ccccc2)c1 [erk000514]	9 nM
Cc1cnc(N[C@H]2C[C@H]2CO)nc1-c1c[nH]c(C(=O)N[C@H](CO)c2ccccc2)c1 [erk000515]	21 nM
Cc1cnc(NC2CCCC2)nc1-c1c[nH]c(C(=O)N[C@H](CO)c2ccccc2)c1 [erk000516]	2 nM
Cc1cnc(Nc2ccccn2)nc1-c1c[nH]c(C(=O)N[C@H](CO)c2ccccc2)c1 [erk000517]	0.4 nM
Cc1ccnc(Nc2ncc(C)c(-c3c[nH]c(C(=O)N[C@H](CO)c4ccccc4)c3)n2)c1 [erk000518]	4 nM
Cc1cnc(NCCN2CCOCC2)nc1-c1c[nH]c(C(=O)N[C@H](CO)c2ccccc2)c1 [erk000519]	120 nM
Cc1cnc(NCC[C@@H]2CCCN2C)nc1-c1c[nH]c(C(=O)N[C@H](CO)c2ccccc2)c1 [erk000520]	537 nM
Cc1cccnc1Nc1ncc(C)c(-c2c[nH]c(C(=O)N[C@H](CO)c3ccccc3)c2)n1 [erk000521]	91 nM
Cc1cccc([C@@H](CO)NC(=O)c2cc(-c3nc(NC(C)C)ncc3C)c[nH]2)c1 [erk000522]	1 nM
Cc1cccc([C@@H](CO)NC(=O)c2cc(-c3nc(NCC(C)C)ncc3C)c[nH]2)c1 [erk000523]	2 nM
Cc1cnc(NCC(C)C)nc1-c1c[nH]c(C(=O)N[C@H](CO)c2cccc(Cl)c2)c1 [erk000525]	3 nM
Cc1cnc(Nc2cccc(C)c2C)nc1-c1c[nH]c(C(=O)N[C@H](CO)c2cccc(Cl)c2)c1 [erk000526]	1 nM
Cc1cnc(Nc2cccc(O)c2C)nc1-c1c[nH]c(C(=O)N[C@H](CO)c2ccccc2)c1 [erk000527]	3 nM
CCN1CCC[C@H]1CNc1ncc(C)c(-c2c[nH]c(C(=O)N[C@H](CO)c3ccccc3)c2)n1 [erk000530]	110 nM and 60 nM
COc1cccc(Nc2ncc(C)c(-c3c[nH]c(C(=O)N[C@H](CO)c4ccccc4)c3)n2)c1C [erk000531]	79 nM
Cc1cccc([C@@H](CO)NC(=O)c2cc(-c3nc(Nc4ccccc4N(C)C)ncc3C)c[nH]2)c1 [erk000532]	50 nM
Cc1cnc(Nc2ccccc2C#N)nc1-c1c[nH]c(C(=O)N[C@H](CO)c2ccccc2)c1 [erk000533]	2000 nM
Cc1cnc(NC2CCCCC2)nc1-c1c[nH]c(C(=O)N[C@H](CO)c2ccccc2)c1 [erk000534]	2 nM
COc1cccc(Nc2ncc(C)c(-c3c[nH]c(C(=O)N[C@H](CO)c4cccc(C)c4)c3)n2)c1C [erk000535]	200 nM
Cc1cnc(NC(C)C)nc1-c1c[nH]c(C(=O)N[C@H](CO)c2cccc(F)c2)c1 [erk000536]	15 nM
Cc1cnc(Nc2cccc(F)c2C)nc1-c1c[nH]c(C(=O)N[C@H](CO)c2ccccc2)c1 [erk000538]	2 nM

Structure (SMILES)	Ki
Cc1cnc(Nc2cccc(C)c2C)nc1-c1c[nH]c(C(=O)N[C@H](CO)c2cccc(F)c2)c1 [erk000539]	4 nM
Cc1cnc(NC2CCC2)nc1-c1c[nH]c(C(=O)N[C@H](CO)c2ccccc2)c1 [erk000540]	6 nM
Cc1cnc(Nc2cccc(CO)c2C)nc1-c1c[nH]c(C(=O)N[C@H](CO)c2ccccc2)c1 [erk000541]	1 nM
Cc1cnc(NC2CC2)nc1-c1c[nH]c(C(=O)N[C@H](CO)c2cccc(F)c2)c1 [erk000542]	11 nM
Nc1nccc(-c2c[nH]c(C(=O)N(CCO)Cc3ccccc3)c2)n1 [erk000543]	2000 nM
CCSc1ncc(C)c(-c2c[nH]c(C(=O)N[C@H](CO)c3ccccc3)c2)n1 [erk000544]	65 nM
CCC[C@H](C)Nc1ncc(C)c(-c2c[nH]c(C(=O)N[C@H](CO)c3ccccc3)c2)n1 [erk000546]	18 nM
CCC(CC)Nc1ncc(C)c(-c2c[nH]c(C(=O)N[C@H](CO)c3ccccc3)c2)n1 [erk000547]	6 nM
COC[C@H](C)Nc1ncc(C)c(-c2c[nH]c(C(=O)N[C@H](CO)c3ccccc3)c2)n1 [erk000548]	24 nM
CC[C@@H](COC)Nc1ncc(C)c(-c2c[nH]c(C(=O)N[C@H](CO)c3ccccc3)c2)n1 [erk000549]	27 nM
CCC[C@@H](CO)Nc1ncc(C)c(-c2c[nH]c(C(=O)N[C@H](CO)c3ccccc3)c2)n1 [erk000551]	20 nM
CSCC[C@@H](CO)Nc1ncc(C)c(-c2c[nH]c(C(=O)N[C@H](CO)c3ccccc3)c2)n1 [erk000552]	5 nM
Cc1cnc(NC2CCC(C)CC2)nc1-c1c[nH]c(C(=O)N[C@H](CO)c2ccccc2)c1 (stereo not given in full) [erk000553]	6 nM
Cc1cnc(Nc2cccc3c2CCC3)nc1-c1c[nH]c(C(=O)N[C@H](CO)c2ccccc2)c1 [erk000556]	3 nM
CC[C@@H](COC)Nc1ncc(C)c(-c2c[nH]c(C(=O)N[C@H](CO)c3cccc(Cl)c3)c2)n1 [erk000557]	4 nM
Cc1cnc(NN2CCOCC2)nc1-c1c[nH]c(C(=O)N[C@H](CO)c2cccc(Cl)c2)c1 [erk000558]	2 nM
Cc1cnc(Nc2cc(Cl)cc(Cl)c2)nc1-c1c[nH]c(C(=O)N[C@H](CO)c2ccccc2)c1 [erk000559]	3 nM
CC(=O)NCCNc1ncc(C)c(-c2c[nH]c(C(=O)N[C@H](CO)c3ccccc3)c2)n1 [erk000560]	58 nM
Cc1cnc(Nc2c(F)cccc2F)nc1-c1c[nH]c(C(=O)N[C@H](CO)c2ccccc2)c1 [erk000561]	4 nM
Cc1cnc(Nc2cccc(Br)c2C)nc1-c1c[nH]c(C(=O)N[C@H](CO)c2ccccc2)c1 [erk000562]	27 nM
Cc1ccc(Nc2ncc(C)c(-c3c[nH]c(C(=O)N[C@H](CO)c4ccccc4)c3)n2)cc1Br [erk000563]	3 nM
Cc1cnc(Nc2c(Cl)cccc2Cl)nc1-c1c[nH]c(C(=O)N[C@H](CO)c2ccccc2)c1 [erk000564]	151 nM
Cc1cnc(Nc2cccc([N+](=O)[O-])c2)nc1-c1c[nH]c(C(=O)N[C@H](CO)c2ccccc2)c1 [erk000565]	3 nM
Cc1cc(C)cc(Nc2ncc(C)c(-c3c[nH]c(C(=O)N[C@H](CO)c4ccccc4)c3)n2)c1 [erk000566]	3 nM
Cc1cnc(NCCN2CCCC2)nc1-c1c[nH]c(C(=O)N[C@H](CO)c2ccccc2)c1 [erk000568]	224 nM
Cc1cnc(Nn2cccc2)nc1-c1c[nH]c(C(=O)N[C@H](CO)c2ccccc2)c1 [erk000573]	9 nM
